{
  "source": "patent US20140213454A1",
  "about": "“METHODS TO INDUCE DROUGHT TOLERANCE IN CROPS” (Valent BioSciences Corporation, priority 2013, published 2014)",
  "key": {"hybrid corn": {"tested_on": "hybrid corn", "experiment": "Field trial 2012, time course of GA3 applications, hybrid corn (Example 3)", "assay_type": "in vivo", "details": "5.3 grams GA3/acre, extreme and exceptional drought, untreated 116", "experimental": "In another field trial conducted in 2012 a time course of GA3 applications was performed. In this trial, hybrid corn was planted on April 24, 2012 at a density of 32,000 plants/acre. The plants were sprayed with GA3 at either the fifth leaf (V5) or tassel emergence (VT) on June 6 or July 7, respectively. This trial was subjected to extreme and exceptional drought in July during set and grain fill. As is shown in Table 3 below, the effect of the spray treatments of GA3 was dependent on the timing of the GA3 application."}, "corn [1]": {"tested_on": "corn", "experiment": "Replicated corn trial 2012, extreme and exceptional drought (Example 2)", "assay_type": "in vivo", "details": "for Grain Yield: extreme and exceptional drought, untreated 88.45", "source_text": "In a replicated trial conducted in 2012, the corn crop experienced extreme and exceptional drought in July, as described by the National Climate Data Center. Corn was planted at the end of April and treated with GA3 at either the V2 or V5 growth stages. Thirty two days after application, the GA3-treated corn was approximately 10 inches taller than the untreated on average."}, "corn [2]": {"tested_on": "corn", "experiment": "Replicated corn trial 2012, moderate drought (Example 1)", "assay_type": "in vivo", "experimental": "A replicated corn silage study was conducted in 2012. Corn was planted on May 18, 2012, and treated with two rates of GA3 at either the V2 (June 2) or V5 (June 18) growth stage, each time at two rates of GA3. Grain yields were estimated from harvests of 20 feet of row and converted to bushels of grain per acre. There was 1.5 inches of rain in the two weeks before planting but no rain from May 10 until May 29, when there was 0.7 inch rain. During June there was 2.9 inches of rain spread over the month. There were only two rain events from July 1-25, each of less than 0.2 inches. On July 26th there was approximately 2 inches of rain. Rainfall in June, July and August was about one third below the 30-year average for the area and the corn was under moderate drought conditions. Crop moisture conditions in July were described as ‘excessively dry’ by the National Climate Data Center of NOAA."}, "perennial ryegrass": {"tested_on": "perennial ryegrass", "details": "Jiang and Fry 1998; cited from earlier work"}, "corn [3]": {"tested_on": "corn", "details": "Robertson and Greenway 1973; cited from earlier work"}},
  "data": [
    {"smiles": "C=C1C[C@]23C[C@@]1(O)CC[C@H]2[C@@]12C=C[C@H](O)[C@@](C)(C(=O)O1)[C@H]2[C@@H]3C(=O)O", "note": "[GA3, gibberellic acid]", "values": [
      {"measurement": "Grain Yield", "setting": "hybrid corn; application stage V5", "value": 155, "unit": "Bu/Acre"},
      {"measurement": "Grain Yield", "setting": "hybrid corn; application stage VT (tassel emergence)", "value": 131, "unit": "Bu/Acre"},
      {"measurement": "Grain Yield", "setting": "corn [1]; 3.2 grams GA3/acre, application stage V2", "value": 119.70, "unit": "Bu/Acre"},
      {"measurement": "Grain Yield", "setting": "corn [1]; 3.2 grams GA3/acre, application stage V5", "value": 155.65, "unit": "Bu/Acre"},
      {"measurement": "Grain Yield", "setting": "corn [1]; 6.4 grams GA3/acre, application stage V2", "value": 119.83, "unit": "Bu/Acre"},
      {"measurement": "Grain Yield", "setting": "corn [1]; 6.4 grams GA3/acre, application stage V5", "value": 121.60, "unit": "Bu/Acre"},
      {"measurement": "Plant height, taller than the untreated on average", "setting": "corn [1]; thirty two days after application at V2 or V5", "value": "approximately 10 inches"},
      {"measurement": "Grain Yield", "setting": "corn [2]; 3.2 grams GA3/acre, application timing V2, untreated 124.0", "value": 141.2, "unit": "Bu/Acre"},
      {"measurement": "Grain Yield", "setting": "corn [2]; 3.2 grams GA3/acre, application timing V5, untreated 124.0", "value": 143.0, "unit": "Bu/Acre"},
      {"measurement": "Grain Yield", "setting": "corn [2]; 6.4 grams GA3/acre, application timing V2, untreated 124.0", "value": 141.1, "unit": "Bu/Acre"},
      {"measurement": "Grain Yield", "setting": "corn [2]; 6.4 grams GA3/acre, application timing V5, untreated 124.0", "value": 156.1, "unit": "Bu/Acre"}
    ]},
    {"smiles": "CCOC(=O)C1CC(=O)C(=C(O)C2CC2)C(=O)C1", "note": "(stereo not shown) [Trinexapac-ethyl, trinexapac-ethyl]", "values": [
      {"measurement": "Drought tolerance", "setting": "perennial ryegrass", "value": "induce drought tolerance in perennial ryegrass"}
    ]},
    {"smiles": "C[N+](C)(C)CCCl", "note": "[chlormequat chloride]", "values": [
      {"measurement": "Drought resistance", "setting": "corn [3]", "value": "induce drought resistance in corn"}
    ]}
  ]
}
